The values below come from patent US8183239B2, “Substituted piperazines and piperidines as modulators of the neuropeptide Y2 receptor” (Janssen Pharmaceutica NV, priority 2005, dated 2012).

Each structure is given as a SMILES string. Where only a bound is given, the exact number is not on record here.

What is called IC50 is the point on the concentration scale where inhibition reaches its midpoint.

The target in the experiment is T1, Y2 receptors (Homo sapiens, UniProt P49146).
T1 construct: endogenous in cells; host or cells: KAN-Ts cells (membranes)
T1 sequence (P49146 1-381): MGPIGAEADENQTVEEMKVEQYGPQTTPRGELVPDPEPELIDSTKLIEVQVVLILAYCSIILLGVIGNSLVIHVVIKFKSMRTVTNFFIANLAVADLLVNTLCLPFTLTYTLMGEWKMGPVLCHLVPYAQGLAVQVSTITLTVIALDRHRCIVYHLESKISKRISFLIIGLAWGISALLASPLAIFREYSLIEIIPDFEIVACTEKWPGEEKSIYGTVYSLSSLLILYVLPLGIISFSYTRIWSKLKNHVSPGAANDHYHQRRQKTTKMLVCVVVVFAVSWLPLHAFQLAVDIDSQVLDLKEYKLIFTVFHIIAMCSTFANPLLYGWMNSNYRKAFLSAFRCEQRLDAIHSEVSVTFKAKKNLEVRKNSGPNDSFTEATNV
As to the kind of experiment: Radioligand binding assay ([125I]PYY, KAN-Ts cell membranes). The note with it: Table 2, [125I]PYY 80 pM, average of results, read-out: IC50. The method in brief:
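Membranes from KAN-Ts cells endogenously expressing Y2 incubated 1 h at rt with 80 pM [^125I]PYY ± test compound in HEPES buffer with NaCl, Ca^2+ and Mg^2+. Bound radioactivity collected by filtration; specific binding defined with […]. IC50 from sigmoidal fit, averaged over 3-8 duplicate experiments.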
For `CCC(CC)NC(=O)c1ccc(N2CCN(C(C(=O)N(CC)CC)c3ccccc3)CC2)c(F)c1` (stereo not drawn) [Example 190, 4-[4-(Diethylcarbamoyl-phenyl-methyl)-piperazin-1-yl]-N-(1-ethyl-propyl)-3-fluoro-benzamide], the IC50 is 5.7 µM. For the compound `CCN(CC)C(=O)C(c1ccccc1)N1CCN(c2ccc(Nc3ccccn3)cc2F)CC1` (stereo not drawn) [Example 191, N,N-Diethyl-2-{4-[2-fluoro-4-(pyridin-2-ylamino)-phenyl]-piperazin-1-yl}-2-phenyl-acetamide], the IC50 is 0.38 µM. With `CCN(CC)C(=O)C(c1ccccc1)N1CCN(c2ccc(Nc3ncccc3C)cc2F)CC1` (stereo not drawn) [Example 192, N,N-Diethyl-2-{4-[2-fluoro-4-(3-methyl-pyridin-2-ylamino)-phenyl]-piperazin-1-yl}-2-phenyl-acetamide] the figure was 5 µM; with `CCC(CC)C(=O)Nc1ccc(C2=CCN(C(C(=O)N(CC)CC)c3ccccc3)CC2)c(F)c1` (stereo not drawn) [Example 193, N-{4-[1-(Diethylcarbamoyl-phenyl-methyl)-1,2,3,6-tetrahydro-pyridin-4-yl]-3-fluoro-phenyl}-2-ethyl-butyramide], 0.14 µM. Then `CCC(CC)C(=O)Nc1ccc(C2CCN(C(C(=O)N(CC)CC)c3ccccc3)CC2)c(F)c1` (stereo not drawn) [Example 194, N-{4-[1-(Diethylcarbamoyl-phenyl-methyl)-piperidin-4-yl]-3-fluoro-phenyl}-2-ethyl-butyramide], with 0.1 µM; and `CCC(CC)C(=O)Nc1ccc(N2CCN(C(C(=O)N(CC)CC)c3cccc(Cl)c3)CC2)c(F)c1` (stereo not drawn) [Example 195, N-(4-{4-[(3-Chloro-phenyl)-diethylcarbamoyl-methyl]-piperazin-1-yl}-3-fluoro-phenyl)-2-ethyl-butyramide], with 0.05 µM; and `CCC(CC)C(=O)Nc1ccc(N2CCN(C(C(=O)N3CCC(F)(F)CC3)c3cccc(F)c3)CC2)c(F)c1` (stereo not drawn) [Example 196, N-(4-{4-[2-(4,4-Difluoro-piperidin-1-yl)-1-(3-fluoro-phenyl)-2-oxo-ethyl]-piperazin-1-yl}-3-fluoro-phenyl)-2-ethyl-butyramide], with 0.107 µM. Then `CCC(CC)C(=O)Nc1ccc(N2CCN(C(C(=O)N(CC)CC)c3ccc(F)cc3F)CC2)c(F)c1` (stereo not drawn) [Example 197, N-(4-{4-[Diethylcarbamoyl-(2,4-difluoro-phenyl)-methyl]-piperazin-1-yl}-3-fluoro-phenyl)-2-ethyl-butyramide], with 0.15 µM; and `CCC(CC)C(=O)Nc1ccc(N2CCN(C(C(=O)N3CCC(F)(F)C3)c3ccc(F)cc3)CC2)c(F)c1` (stereo not drawn) [Example 198, N-(4-{4-[2-(3,3-Difluoro-pyrrolidin-1-yl)-1-(4-fluoro-phenyl)-2-oxo-ethyl]-piperazin-1-yl}-3-fluoro-phenyl)-2-ethyl-butyramide], with 0.35 µM; and `CCC(CC)C(=O)Nc1ccc(N2CCN(C(C(=O)N3CCC(F)(F)C3)c3cccc(F)c3)CC2)c(F)c1` (stereo not drawn) [Example 199, N-(4-{4-[2-(3,3-Difluoro-pyrrolidin-1-yl)-1-(3-fluoro-phenyl)-2-oxo-ethyl]-piperazin-1-yl}-3-fluoro-phenyl)-2-ethyl-butyramide], with 0.148 µM.

As for `CCC(CC)C(=O)Nc1ccc(N2CCN(C(C(=O)N(CC)CC)c3cc(Br)ccc3F)CC2)c(F)c1` (stereo not drawn) [Example 200, N-(4-{4-[(5-Bromo-2-fluoro-phenyl)-diethylcarbamoyl-methyl]-piperazin-1-yl}-3-fluoro-phenyl)-2-ethyl-butyramide], the IC50 amounted to 0.015 µM.

For the compound `CCC(CC)C(=O)Nc1ccc(N2CCN(C(C(=O)N(CC)CC)c3ccc(F)c(F)c3)CC2)c(F)c1` (stereo not drawn) [Example 201, N-(4-{4-[Diethylcarbamoyl-(3,4-difluoro-phenyl)-methyl]-piperazin-1-yl}-3-fluoro-phenyl)-2-ethyl-butyramide], the IC50 amounted to 0.33 µM. With `CCN(CC)C(=O)C(c1ccccc1)N1CCN(c2ccc(NC(=O)C3CCCC3)cn2)CC1` (stereo not drawn) [Example 202, Cyclopentanecarboxylic acid {6-[4-(diethylcarbamoyl-phenyl-methyl)-piperazin-1-yl]-pyridin-3-yl}-amide] the figure was 0.9 µM; with `CCC(CC)C(=O)Nc1ccc(N2CCN(C(C(=O)N(CC)CC)c3ccccc3)CC2)nc1` (stereo not drawn) [Example 203, N-{6-[4-(Diethylcarbamoyl-phenyl-methyl)-piperazin-1-yl]-pyridin-3-yl}-2-ethyl-butyramide], 0.735 µM; with `CCN(CC)C(=O)C(c1ccccc1)C1CCN(c2ccc(NC(=O)C3CCCC3)cn2)CC1` (stereo not drawn) [Example 204, Cyclopentanecarboxylic acid [4-(diethylcarbamoyl-phenyl-methyl)-3,4,5,6-tetrahydro-2H-[1,2′]bipyridinyl-5′-yl]-amide], 0.4 µM. In the case of `CCC(CC)C(=O)Nc1ccc(N2CCC(C(C(=O)N(CC)CC)c3ccccc3)CC2)nc1` (stereo not drawn) [Example 205, N-[4-(Diethylcarbamoyl-phenyl-methyl)-3,4,5,6-tetrahydro-2H-[1,2′]bipyridinyl-5′-yl]-2-ethyl-butyramide], the IC50 worked out at 0.3 µM. With `CCC(CC)C(=O)Nc1ccc(N2CCC(C(C(=O)N3CCC(F)CC3)c3ccccc3)CC2)c(F)c1` (stereo not drawn) [Example 206, 2-Ethyl-N-(3-fluoro-4-{4-[2-(4-fluoro-piperidin-1-yl)-2-oxo-1-phenyl-ethyl]-piperidin-1-yl}-phenyl)-butyramide] the figure was 0.02 µM; with `CCC(CC)C(=O)Nc1ccc(N2CCC(C(C(=O)N3CC(F)(F)C3)c3ccccc3)CC2)c(F)c1` (stereo not drawn) [Example 207, N-(4-{4-[2-(3,3-Difluoro-azetidin-1-yl)-2-oxo-1-phenyl-ethyl]-piperidin-1-yl}-3-fluoro-phenyl)-2-ethyl-butyramide], 0.07 µM.

Regarding `CCC(CC)C(=O)Nc1ccc(N2CCC(C(C(=O)N3CCC(F)(F)CC3)c3ccccc3)CC2)c(F)c1` (stereo not drawn) [Example 208, N-(4-{4-[2-(4,4-Difluoro-piperidin-1-yl)-2-oxo-1-phenyl-ethyl]-piperidin-1-yl}-3-fluoro-phenyl)-2-ethyl-butyramide], the IC50 turned out to be 0.02 µM.

For `CCC(CC)C(=O)Nc1ccc(N2CCC(C(C(=O)N3CCC3)c3ccccc3)CC2)c(F)c1` (stereo not drawn) [Example 209, N-{4-[4-(2-Azetidin-1-yl-2-oxo-1-phenyl-ethyl)-piperidin-1-yl]-3-fluoro-phenyl}-2-ethyl-butyramide], the IC50 stood at 0.1 µM. For `CCC(CC)C(=O)Nc1ccc(N2CCC(C(C(=O)N3CCC(F)(F)C3)c3ccccc3)CC2)c(F)c1` (stereo not drawn) [Example 210, N-(4-{4-[2-(3,3-Difluoro-pyrrolidin-1-yl)-2-oxo-1-phenyl-ethyl]-piperidin-1-yl}-3-fluoro-phenyl)-2-ethyl-butyramide], the IC50 came to 0.025 µM. With `CCC(CC)C(=O)Nc1ccc(N2CCC(C(C(=O)N3CCCC3)c3ccccc3)CC2)c(F)c1` (stereo not drawn) [Example 211, 2-Ethyl-N-{3-fluoro-4-[4-(2-oxo-1-phenyl-2-pyrrolidin-1-yl-ethyl)-piperidin-1-yl]-phenyl}-butyramide] the figure was 0.026 µM. `CCC(CC)C(=O)Nc1ccc(N2CCC(C(C(=O)NC3CC3)c3ccccc3)CC2)c(F)c1` (stereo not drawn) [Example 212, N-{4-[4-(Cyclopropylcarbamoyl-phenyl-methyl)-piperidin-1-yl]-3-fluoro-phenyl}-2-ethyl-butyramide]: the half-maximal inhibitory concentration (IC50) worked out at 0.055 µM.

As for `CCC(CC)C(=O)Nc1ccc(N2CCC(C(C(=O)Nc3nc(C)cs3)c3ccccc3)CC2)c(F)c1` (stereo not drawn) [Example 213, 2-Ethyl-N-(3-fluoro-4-{4-[(4-methyl-thiazol-2-ylcarbamoyl)-phenyl-methyl]-piperidin-1-yl}-phenyl)-butyramide], the IC50 came to 0.03 µM.

Regarding `CCC(CC)C(=O)Nc1ccc(N2CCC(C(C(=O)OC)c3ccccc3)CC2)c(F)c1` (stereo not drawn) [Example 214, {1-[4-(2-Ethyl-butyrylamino)-2-fluoro-phenyl]-piperidin-4-yl}-phenyl-acetic acid methyl ester], the IC50 was 0.04 µM. Then `CCC(CC)C(=O)Nc1ccc(N2CCC(C(C(=O)N3CCCCC3)c3ccccc3)CC2)c(F)c1` (stereo not drawn) [Example 215, 2-Ethyl-N-{3-fluoro-4-[4-(2-oxo-1-phenyl-2-piperidin-1-yl-ethyl)-piperidin-1-yl]-phenyl}-butyramide], with 0.1 µM. Consider `CCC(CC)C(=O)Nc1ccc(N2CCC(C(C(=O)N3CCN(C)CC3)c3ccccc3)CC2)c(F)c1` (stereo not drawn) [Example 216, 2-Ethyl-N-(3-fluoro-4-{4-[2-(4-methyl-piperazin-1-yl)-2-oxo-1-phenyl-ethyl]-piperidin-1-yl}-phenyl)-butyramide], for which the IC50 was at least 10 µM. With `CCC(CC)C(=O)Nc1ccc(N2CCC(C(C(=O)N(CC)CC)c3ccccc3)CC2)c(C#N)c1` (stereo not drawn) [Example 217, N-{3-Cyano-4-[4-(diethylcarbamoyl-phenyl-methyl)-piperidin-1-yl]-phenyl}-2-ethyl-butyramide] the figure was 0.01 µM; with `CCC(CC)C(=O)Nc1ccc(N2CCC(C(C(=O)N(CC)CC)c3ccccc3)CC2)c(Br)c1` (stereo not drawn) [Example 219, N-{3-Bromo-4-[4-(diethylcarbamoyl-phenyl-methyl)-piperidin-1-yl]-phenyl}-2-ethyl-butyramide], 0.037 µM. In the case of `CCN(CC)C(=O)C(c1ccccc1)C1CCN(c2ccc(NC(=O)C3CCCC3)cc2F)CC1` (stereo not drawn) [Example 220, Cyclopentanecarboxylic acid {4-[4-(diethylcarbamoyl-phenyl-methyl)-piperidin-1-yl]-3-fluoro-phenyl}-amide], the 50% inhibitory concentration (IC50) is 0.04 µM.
